Experiments:
Dipeptidyl peptidase 2 = Dipeptidyl peptidase 2 (Homo sapiens, UniProt Q9UHL4); assay: Inhibition of QPP
Dipeptidyl peptidase 8 = Dipeptidyl peptidase 8 (Homo sapiens, UniProt Q6V1X1); assay: Inhibition of DPP8
Dipeptidyl peptidase 9 = Dipeptidyl peptidase 9 (Homo sapiens, UniProt Q86TI2); assay: Inhibition of DPP9
Dipeptidyl peptidase 4 = Dipeptidyl peptidase 4 (Homo sapiens, UniProt P27487)
[1] = Plasma clearance in rat; format: ADME, organism-based
[2] = Plasma clearance in dog; format: ADME, organism-based, Canis lupus familiaris
[3] = Plasma clearance in rhesus monkey; format: ADME, organism-based, Macaca mulatta
Rattus norvegicus = species on record: Rattus norvegicus; assay: (§1) Half life in rat; format: ADME, organism-based; conditions: in vivo
[4] = Half life in dog; format: ADME, organism-based, Canis lupus familiaris; conditions: in vivo
[5] = Half life in rhesus monkey; format: ADME, organism-based, Macaca mulatta; conditions: in vivo
[6] = Oral bioavailability in dog; format: ADME, organism-based, Canis lupus familiaris; conditions: in vivo
[7] = Oral bioavailability in rhesus monkey; format: ADME, organism-based, Macaca mulatta; conditions: in vivo
[8] = as §1; format: ADME, organism-based; conditions: in vivo
[9] = Oral bioavailability in rat; format: ADME, organism-based; conditions: in vivo
Mus musculus [10] = assay: Reduction of blood glucose excursion in lean mouse at 0.1 mg/kg by oral glucose tolerance test; format: functional; design: scale not given: the % may be the effect or the level left
Mus musculus [11] = assay: Reduction of blood glucose excursion in lean mouse at 3.0 mg/kg by oral glucose tolerance test; format: functional; design: scale not given: the % may be the effect or the level left
Mus musculus [12] = assay: Reduction of blood glucose excursion in lean mouse at 1.0 mg/kg by oral glucose tolerance test; format: functional; design: scale not given: the % may be the effect or the level left

Sequence of Dipeptidyl peptidase 9 (Q86TI2 whole entry): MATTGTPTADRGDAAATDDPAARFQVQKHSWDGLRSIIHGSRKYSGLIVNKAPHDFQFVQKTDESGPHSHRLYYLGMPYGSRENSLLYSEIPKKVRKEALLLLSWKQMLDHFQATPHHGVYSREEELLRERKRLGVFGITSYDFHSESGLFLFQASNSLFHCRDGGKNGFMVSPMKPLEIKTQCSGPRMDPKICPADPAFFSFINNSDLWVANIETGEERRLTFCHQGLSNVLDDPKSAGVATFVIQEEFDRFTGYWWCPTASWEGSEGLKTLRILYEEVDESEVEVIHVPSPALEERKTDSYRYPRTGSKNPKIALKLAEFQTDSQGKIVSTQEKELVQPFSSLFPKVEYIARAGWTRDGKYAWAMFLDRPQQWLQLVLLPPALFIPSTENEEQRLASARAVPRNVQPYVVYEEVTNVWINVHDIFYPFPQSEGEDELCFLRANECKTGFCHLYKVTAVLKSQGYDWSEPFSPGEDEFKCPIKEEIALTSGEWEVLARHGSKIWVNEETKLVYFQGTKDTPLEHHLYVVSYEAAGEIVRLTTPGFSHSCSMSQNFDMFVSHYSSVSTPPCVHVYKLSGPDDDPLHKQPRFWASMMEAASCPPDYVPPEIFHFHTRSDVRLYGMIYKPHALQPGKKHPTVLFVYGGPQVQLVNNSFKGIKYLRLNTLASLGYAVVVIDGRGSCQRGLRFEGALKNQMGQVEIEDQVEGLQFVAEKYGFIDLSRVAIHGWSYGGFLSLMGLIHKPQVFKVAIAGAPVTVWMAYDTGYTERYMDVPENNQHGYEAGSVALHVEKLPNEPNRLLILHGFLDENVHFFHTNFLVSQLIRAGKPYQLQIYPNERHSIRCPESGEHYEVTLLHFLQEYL
Sequence of Dipeptidyl peptidase 8 (Q6V1X1 whole entry): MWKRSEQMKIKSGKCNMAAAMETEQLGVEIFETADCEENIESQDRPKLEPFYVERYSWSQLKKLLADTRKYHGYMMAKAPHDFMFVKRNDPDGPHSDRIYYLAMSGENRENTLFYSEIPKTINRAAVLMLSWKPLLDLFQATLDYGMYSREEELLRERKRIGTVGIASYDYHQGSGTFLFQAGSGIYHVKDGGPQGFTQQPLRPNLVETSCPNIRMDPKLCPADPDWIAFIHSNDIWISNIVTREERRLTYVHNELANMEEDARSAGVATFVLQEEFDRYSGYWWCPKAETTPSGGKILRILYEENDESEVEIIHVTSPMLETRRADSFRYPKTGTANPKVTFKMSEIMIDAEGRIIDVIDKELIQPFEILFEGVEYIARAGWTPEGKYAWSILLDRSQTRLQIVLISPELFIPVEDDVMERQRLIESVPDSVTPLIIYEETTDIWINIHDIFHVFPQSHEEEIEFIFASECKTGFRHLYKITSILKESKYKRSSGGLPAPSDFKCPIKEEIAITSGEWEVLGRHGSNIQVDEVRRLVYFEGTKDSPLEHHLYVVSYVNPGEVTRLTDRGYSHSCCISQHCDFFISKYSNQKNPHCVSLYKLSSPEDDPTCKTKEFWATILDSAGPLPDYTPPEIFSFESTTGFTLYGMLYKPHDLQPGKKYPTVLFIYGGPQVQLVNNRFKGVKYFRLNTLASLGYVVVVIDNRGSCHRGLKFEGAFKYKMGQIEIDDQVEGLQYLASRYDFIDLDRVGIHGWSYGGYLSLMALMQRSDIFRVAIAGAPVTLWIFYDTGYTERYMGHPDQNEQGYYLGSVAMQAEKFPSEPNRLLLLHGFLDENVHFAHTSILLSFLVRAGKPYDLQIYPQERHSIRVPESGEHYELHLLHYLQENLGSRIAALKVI
Sequence of Dipeptidyl peptidase 4 (P27487 whole entry): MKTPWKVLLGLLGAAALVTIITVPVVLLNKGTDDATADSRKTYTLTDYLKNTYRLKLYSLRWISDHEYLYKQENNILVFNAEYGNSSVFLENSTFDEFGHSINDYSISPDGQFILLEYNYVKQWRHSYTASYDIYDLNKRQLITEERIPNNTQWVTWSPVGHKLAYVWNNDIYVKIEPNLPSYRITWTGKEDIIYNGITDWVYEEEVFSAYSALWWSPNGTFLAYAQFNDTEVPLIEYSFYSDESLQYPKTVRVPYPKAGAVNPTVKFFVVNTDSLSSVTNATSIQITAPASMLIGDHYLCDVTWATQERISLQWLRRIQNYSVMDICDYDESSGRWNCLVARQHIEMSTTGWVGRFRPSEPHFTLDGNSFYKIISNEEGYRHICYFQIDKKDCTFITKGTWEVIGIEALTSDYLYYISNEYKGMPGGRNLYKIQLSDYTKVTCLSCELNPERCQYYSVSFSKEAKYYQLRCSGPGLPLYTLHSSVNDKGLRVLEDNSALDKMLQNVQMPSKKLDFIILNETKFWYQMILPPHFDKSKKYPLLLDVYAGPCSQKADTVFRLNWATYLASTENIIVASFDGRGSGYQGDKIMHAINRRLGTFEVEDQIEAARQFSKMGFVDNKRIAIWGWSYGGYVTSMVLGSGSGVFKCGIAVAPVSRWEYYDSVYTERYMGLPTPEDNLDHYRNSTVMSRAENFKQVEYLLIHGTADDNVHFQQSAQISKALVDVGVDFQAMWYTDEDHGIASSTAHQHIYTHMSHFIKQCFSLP

SMILES | IC50 (Dipeptidyl peptidase 2) [µM] | IC50 (Dipeptidyl peptidase 8) [µM] | IC50 (Dipeptidyl peptidase 9) [µM] | IC50 (Dipeptidyl peptidase 4) [µM] | clearance [1] [mL/min/kg] | half-life [8] [h] | bioavailability [9] [%] | also measured
N[C@@H](CC(=O)N1CCn2nc(C3CC3)nc2C1)Cc1cc(F)c(F)cc1F | > 100 | > 100 | > 100 |  |  |  |  | 
N[C@@H](CC(=O)N1CCn2ncnc2C1)Cc1cc(F)c(F)cc1F | > 100 | > 100 | > 100 | 0.1 |  |  |  | 
N[C@@H](CC(=O)N1CCn2c(nnc2C(F)(F)F)C1)Cc1cc(F)c(F)cc1F [SITAGLIPTIN] |  |  |  |  | 60 |  |  | clearance [2]: 6 mL/min/kg; clearance [3]: 28 mL/min/kg; t1/2 (Rattus norvegicus): 1.7 h; half-life [4]: 4.9 h; half-life [5]: 3.7 h; bioavailability [6]: 100%; bioavailability [7]: 68%
N[C@@H](CC(=O)N1CCn2nc(-c3ccccc3)nc2C1)Cc1cc(F)c(F)cc1F |  |  | > 100 |  |  |  |  | 
N[C@@H](CC(=O)N1CCn2nc(C(F)(F)F)nc2[C@@H]1C(F)C1CC1)Cc1cc(F)c(F)cc1F (stereo in doubt; 34c) | 5.77 | > 100 |  | 0.018 |  |  |  | 
N[C@@H](CC(=O)N1CCn2nc(C(F)(F)F)nc2C1Cn1cncn1)Cc1cc(F)c(F)cc1F (some centres not stated) | 49 | > 100 | > 100 | 0.005 | 129 | 2.8 | 13 | 
N[C@@H](CC(=O)N1CCn2nc(C(F)(F)F)nc2[C@H]1Cn1cncn1)Cc1cc(F)c(F)cc1F | 22 | > 100 | > 100 | 0.002 |  |  |  | 
N[C@@H](CC(=O)N1CCn2nc(C(F)(F)F)nc2[C@@H]1C(O)C1CC1)Cc1cc(F)c(F)cc1F (some centres not stated) [listing 1 of 2 here] |  |  | > 100 |  | 91 | 5.1 | 51 | 
N[C@@H](CC(=O)N1CCn2nc(C(F)(F)F)nc2[C@@H]1C(O)C1CC1)Cc1cc(F)c(F)cc1F (some centres not stated) [listing 2 of 2 here] |  |  | > 100 |  | 97 | 3.9 | 63 | 
N[C@@H](CC(=O)N1CCn2nc(C(F)(F)F)nc2[C@@H]1C(F)C1CC1)Cc1cc(F)c(F)cc1F (stereo in doubt; 34d) | 4.1 | > 100 |  | 0.011 |  |  |  | 
N[C@@H](CC(=O)N1CCn2nc(C(F)(F)F)nc2[C@H]1Cc1ccc(F)cc1)Cc1cc(F)c(F)cc1F |  |  |  |  | 76 | 2.7 | 32 | 
C[C@@H]1c2nc(C(F)(F)F)nn2CCN1C(=O)C[C@H](N)Cc1cc(F)c(F)cc1F | 25 | > 100 | > 100 |  | 68 | 4 | 74 | clearance [2]: 1 mL/min/kg; clearance [3]: 16 mL/min/kg; half-life [4]: 26 h; half-life [5]: 7.7 h; bioavailability [6]: 67%; bioavailability [7]: 65%; Activity (Mus musculus [10]): 14%; Activity (Mus musculus [11]): 44%; Activity (Mus musculus [12]): 39%
N[C@@H](CC(=O)N1CCn2nc(C(F)(F)F)nc2C1)Cc1cc(F)c(F)cc1F |  |  | > 100 |  | 60 | 3.6 | 100 | 
N[C@@H](CC(=O)N1CCn2nc(C(F)(F)F)nc2C1Cn1cccn1)Cc1cc(F)c(F)cc1F (some centres not stated) | 9.6 | > 100 | > 100 |  | 142 | 2.3 | 62 | 
C[C@H]1c2nc(C(F)(F)F)nn2CCN1C(=O)C[C@H](N)Cc1cc(F)c(F)cc1F | 72 | > 100 | > 100 |  |  |  |  | 
N[C@@H](CC(=O)N1CCn2nc(C(F)(F)F)nc2C1Cn1ccnc1)Cc1cc(F)c(F)cc1F (some centres not stated) | 26 | > 100 |  |  | 97 | 9 | 7.1 | 

Reference: ChEMBL document CHEMBL1140460, “Design, synthesis, and biological evaluation of triazolopiperazine-based beta-amino amides as potent, orally active dipeptidyl peptidase IV (DPP-4) inhibitors” (Bioorg Med Chem Lett, 2007)
